Measured values: US8999326B2, “Oncotherapeutic application of inhibitors of high-affinity glucose transporters” (University of South Florida, priority 2007, dated 2015)

system: H1299, H1650 and MCF-7 cells; test: BrdU proliferation assay, statements for all three cell lines; type: cell-based, human; conditions: 5 μM cisplatin, 5 μM paclitaxel or 10 μM gefitinib
Procedure: FIGS. 5A-5C show the combined effect of chemotherapeutic drugs and Glut-1 antibody on cell proliferation. H1299 (FIG. 5A), H1650 (FIG. 5B), and MCF-7 (FIG. 5C) cells were grown on chamber slides as described above and treated either with cisplatin, paclitaxel or iressa in presence or absence of Glut-1 antibody (0.1 mg) for 18 hours. The proliferation was measured by BrdU incorporation.
MCF-7, H1299 and H1650 cells were plated onto poly-D-lysine (Sigma) coated 8-well glass chamber slides (10,000 cells per well). The cells were incubated with 0.1 mg/ml Glut-1 monoclonal antibody for 18 hours. The cells were fixed and stained using 5-Bromo-2′ deoxyuridine labeling and detection kit from ROCHE according to manufacturer's protocol.
Experiments were done to evaluate whether anti-Glut-1 antibody could synergize with standard chemotherapeutic agents to inhibit proliferation of H1299, H1650 and MCF-7. The cells were plated on chamber slides and incubated in presence of chemotherapeutic agents (5 μM cisplatin, 5 μM paclitaxel or 10 μM geftinib) in absence or presence of 0.1 mg/ml anti-Glut-1 antibody.

| Structure (SMILES) | effect of drug alone on proliferation |
| --- | --- |
| N.N.[Cl][Pt][Cl] [cisplatin] | significant decrease in proliferation |
| COc1cc2ncnc(Nc3ccc(F)c(Cl)c3)c2cc1OCCCN1CCOCC1 [gefitinib] | significant decrease in proliferation |
| CC(=O)O[C@H]1C(=O)[C@@]2(C)[C@H]([C@H](OC(=O)c3ccccc3)[C@]3(O)C[C@H](OC(=O)[C@H](O)[C@@H](NC(=O)c4ccccc4)c4ccccc4)C(C)=C1C3(C)C)[C@]1(OC(C)=O)CO[C@@H]1C[C@@H]2O [paclitaxel] | significant decrease in proliferation |
